Test [1] has as its system HEK293 cells stably expressing αS-A53T-YFP. Kind of test: ProteoStat dye assay and confocal imaging, ligand post treatment, αS fibers templated intracellular aggregation. Format: cell-based, human. The method, then: To test the antagonist activity of NS163 against intracellular αS aggregation, we utilized HEK293 cells, which stably express αS-A53T-YFP[23],[24],[50]. The endogenous monomeric αS-A53T-YFP template into fibers when transfected with exogenously added αS fibers in the presence of Lipofectamine 3000 (Fig. 3a)[23],[24],[50]. In this assay, preformed fibers of αS (5 µM monomer concentration) were introduced to the HEK cells, followed by the introduction of NS163 to the cells after 8 h, which is the time required for the internalization of aS fibers, as we have shown recently. The HEK cells were incubated for an additional […], which is the total time (24 h) required for the complete maturation of aS inclusions in the HEK cells. To test the effect of the NS163 on the intracellular inclusions (αS-A53T-YFP), we used confocal imaging and a ProteoStat dye-based assay recently developed in our lab[24]. […] NS163 was able to reduce the intracellular inclusions of αS by 76% and 90% at 10 µM and 25 µM, respectively, measured using the ProteoStat dye-based assay (Fig. 5h, +NS163). […] To test their antagonist activity against intracellular αS aggregation, we first determined the cell permeability of the tripyridyls using the PAMPA (Fig. 5a, Supplementary Fig. 18a). […]

For test [2], the system named is NL5901 worms (αS-YFP in body wall muscle cells). The experiment in a line: Confocal counting of αS-YFP inclusions in NL5901 worms. It counts as in vivo, C. elegans. The settings on record: for number of inclusions in NL5901, individual trials: 50 µM ligand; for number of inclusions: 50 μM ligand. How it is done: In NL5901 strain, αS-YFP is expressed in the muscle cells of worms. The aggregates of αS-YFP are visible from day 4 and the maximum number of αS-YFP aggregates are visible round day 8 and day 9. The standard worm conditions were used for the culturing of various worm strains. […] The cultures of OP50 were prepared by incubating 50 mL of LB medium with OP50 18 h at 37 °C and the final OD value was adjusted to 0.5 at 600 nm. The NGM plates were prepared by treating them with 350 µL OP50 and leaving the plates at 20 °C for 3 days. […] The NGM plates (with NGM media) were used for the treatment of different worm strains with ligands. […] The NGM plates treated with ligands were prepared and used within 24 h. We used these plates to treat various disease strains for different assays. This experiment was performed based on previously described protocols with slight modifications[24],[65],[88]. […] On day two, the worms were divided into two batches. […] On day four, the ligand (10–50 µM, stock conc. = 10 mM in DMSO, DMSO from 0.1–0.5%, v/v) was added again to PLATE 3. […] For each condition, six biological replicates were performed and at least 10 technical replicates were used for each biological replicate. […] (n = 6 independent experiments and each n consisted of a minimum of ten technical replicates).

“And” between values parts separate entries of the source, which are not always exact repeats. Identical values can stand only once.

Regarding `Cc1ccc(NC(=O)c2ccc(NC(=O)c3ccc([N+](=O)[O-])c(NCCc4c[nH]c5ccccc45)n3)c(NCC3CCCCC3)n2)c(OCC(=O)O)n1` [NS132], in test [1] (5 μM αS fibers, ligand 10 uM added after 8 h), the “ProteoStat dye intensity (raw), individual trials” value was 108 and 126 and 118 and 122 and 111 and 132 and 128 and 121 and 105 and 116 and 120 and 113. In addition, the “reduction of intracellular inclusions of αS (ProteoStat)” value in test [1] (ligand 10 µM added 8 h after 5 µM αS fibers) was 47%. For the same molecule, the “number of inclusions in NL5901, individual trials” value in test [2] (Day 8) was 3 and 2 and 6 and 5 and 9 and 4 and 7 and 8; in test [2] (Day 9), 5 and 6 and 7 and 8 and 11 and 10 and 3 and 9 and 4. Moreover, the number of inclusions in test [2] (day eight) is listed as ~ 5 inclusions/worm; in test [2] (day nine), ~ 6.6 inclusions/worm.

These data come from paper PMC11061149, “Protein mimetic 2D FAST rescues alpha synuclein aggregation mediated early and post disease Parkinson’s phenotypes” (Nature Communications, 2024).
